{"source": "paper PMC10516623", "about": "(2023)", "key": {"[1]": {"tested_on": "P1x_A14C/C26U (DNA:RNA, riboswitch, nucleotides 1-52 of strand 1 RNA, 53-70 DNA; strand 2 DNA) GAUACCUGUCACACCGGCUUCCUGGUGUGACGAGGUGACCUCAGUGGAGCAAACCGCTGCCGTCGCTCCG/CGGAGCGACGGCAGCGGT", "experiment": "smFRET titration, two-state isotherm (pre-folded)", "conditions": "100 mM KCl, 2 mM MgCl2, 40 mM HEPES pH 7.5, immobilised RNA"}, "[2]": {"tested_on": "Wild-typed SAM/SAH riboswitch (Cy3-U20, 3' DNA extension, annealed to anchor DNA) (DNA:RNA, riboswitch, nucleotides 1-52 of strand 1 RNA, 53-70 DNA; strand 2 DNA) GAUACCUGUCACAACGGCUUCCUGGCGUGACGAGGUGACCUCAGUGGAGCAAACCGCTGCCGTCGCTCCG/CGGAGCGACGGCAGCGGT", "experiment": "smFRET vectorial folding (Rep-X unwinding), two-state isotherm", "conditions": "100 mM KCl, 2 mM MgCl2, 40 mM HEPES pH 7.5, 2 mM ATP, RNA released from cDNA heteroduplex, non-equilibrium"}, "[3]": {"tested_on": "Wild-typed SAM/SAH riboswitch (Cy3-U20, 3' DNA extension, annealed to anchor DNA) (DNA:RNA, riboswitch, nucleotides 1-52 of strand 1 RNA, 53-70 DNA; strand 2 DNA) GAUACCUGUCACAACGGCUUCCUGGCGUGACGAGGUGACCUCAGUGGAGCAAACCGCTGCCGTCGCTCCG/CGGAGCGACGGCAGCGGT", "experiment": "smFRET titration, two-state isotherm (pre-folded)", "conditions": "100 mM KCl, 2 mM MgCl2, 40 mM HEPES pH 7.5, immobilised RNA, text b38 gives 10 μM"}, "[4]": {"tested_on": "PK_C18A/G49U/C50U (DNA:RNA, riboswitch, nucleotides 1-52 of strand 1 RNA, 53-70 DNA; strand 2 DNA) GAUACCUGUCACAACGGAUUCCUGGCGUGACGAGGUGACCUCAGUGGAUUAAACCGCTGCCGTCGCTCCG/CGGAGCGACGGCAGCGGT", "experiment": "smFRET titration, two-state isotherm (pre-folded)", "conditions": "100 mM KCl, 2 mM MgCl2, 40 mM HEPES pH 7.5, immobilised RNA"}, "[5]": {"tested_on": "T_G16P (DNA:RNA, riboswitch, purine (adenine lacking N6) at 16 (replaces G, written as G) of strand 1; nucleotides 1-52 RNA, 53-70 DNA; strand 2 DNA) GAUACCUGUCACAACGGCUUCCUGGCGUGACGAGGUGACCUCAGUGGAGCAAACCGCTGCCGTCGCTCCG/CGGAGCGACGGCAGCGGT", "experiment": "smFRET titration, two-state isotherm (pre-folded)", "conditions": "100 mM KCl, 2 mM MgCl2, 40 mM HEPES pH 7.5, immobilised RNA"}, "[6]": {"tested_on": "P1x_C26Z (DNA:RNA, riboswitch, zebularine at 26 (replaces C) of strand 1; nucleotides 1-52 RNA, 53-70 DNA; strand 2 DNA) GAUACCUGUCACAACGGCUUCCUGGCGUGACGAGGUGACCUCAGUGGAGCAAACCGCTGCCGTCGCTCCG/CGGAGCGACGGCAGCGGT", "experiment": "smFRET titration, two-state isotherm (pre-folded)", "conditions": "100 mM KCl, 2 mM MgCl2, 40 mM HEPES pH 7.5, immobilised RNA, text b44 gives 41 μM"}, "[7]": {"tested_on": "P1x_A14P (DNA:RNA, riboswitch, purine (adenine lacking N6) at 14 (replaces A) of strand 1; nucleotides 1-52 RNA, 53-70 DNA; strand 2 DNA) GAUACCUGUCACAACGGCUUCCUGGCGUGACGAGGUGACCUCAGUGGAGCAAACCGCTGCCGTCGCTCCG/CGGAGCGACGGCAGCGGT", "experiment": "smFRET titration, two-state isotherm (pre-folded)", "conditions": "100 mM KCl, 2 mM MgCl2, 40 mM HEPES pH 7.5, immobilised RNA"}}, "data": [{"smiles": "C[S+](CC[C@H](N)C(=O)O)C[C@H]1O[C@@H](n2cnc3c(N)ncnc32)[C@H](O)[C@@H]1O", "note": "(stereo partly shown)", "values": [{"measurement": "Kd", "setting": "[1]", "value": 593, "unit": "µM"}, {"measurement": "apparent Kd", "setting": "[2]", "value": 108, "unit": "µM"}, {"measurement": "Kd", "setting": "[3]", "value": 11, "unit": "µM"}, {"measurement": "Kd", "setting": "[4]", "value": "> 1000", "unit": "µM"}, {"measurement": "Kd", "setting": "[5]", "value": 607, "unit": "µM"}, {"measurement": "Kd", "setting": "[6]", "value": 42, "unit": "µM"}, {"measurement": "Kd", "setting": "[7]", "value": 61, "unit": "µM"}]}]}
